Measurements from patent US10052320B2, “Substituted quinoxalines as FGFR kinase inhibitors” (ASTEX THERAPEUTICS LIMITED, priority 2011, dated 2018).
Structures can show the parent of a compound that is named as a salt.

Q: Which melting point does the source give for COc1cc(OC)cc(N(CCNC(C)C)c2ccc3ncc(-c4cccnc4)nc3c2)c1 (as salt: HCl) (hydrate or solvate) [Compound 10] here?
A: 174 °C

Q: Which melting point does the source give for COc1cc(OC)cc(N(CC2CC2)c2ccc3ncc(-c4ccc5c(ccn5C)c4)nc3c2)c1 (as salt: HCl) (hydrate or solvate) [Compound 20] here?
A: 105 °C

Q: With COc1cc(OC)cc(N(CCNC(C)C)c2ccc3ncc(N4CCC(CN)CC4)nc3c2)c1 (as salt: HCl) (hydrate or solvate) [Compound 67] as the compound, how does the melting point read?
A: 193 °C

Q: Which melting point does the source give for COc1cc(OC)cc(N(CCNC(C)C)c2ccc3ncc(-n4cnc(CO)c4)nc3c2)c1 (as salt: HCl) (hydrate or solvate) [Compound 77] here?
A: 150 °C

Q: With COc1cc(OC)cc(N(CCNC(C)C)c2ccc3ncc(-c4ccccc4)nc3c2)c1 (as salt: HCl) (hydrate or solvate) [Compound 121] as the compound, how does the melting point read?
A: 149 °C

Q: For COc1cc(OC)cc(N(CCNC(C)C)c2ccc3ncc(-c4ccnc(C(=O)NCCCN)c4)nc3c2)c1 (as salt: HCl) (hydrate or solvate) [Compound 146], which melting point is on record?
A: 188 °C

Q: For COc1cc(OC)cc(N(CCCNCC(F)(F)F)c2ccc3ncc(C(=O)NCCN4CCOCC4)nc3c2)c1 (as salt: HCl) (hydrate or solvate) [Compound 158], which melting point is on record?
A: 138 °C

Q: With COc1cc(OC)cc(N(CCNC(C)C)c2ccc3ncc(C(=O)NCCCN4CCN(C)CC4)nc3c2)c1 (as salt: HCl) (hydrate or solvate) [Compound 159] as the compound, how does the melting point read?
A: 176 °C

Q: Which melting point does the source give for COc1cc(OC)cc(N(CCNC(C)C)c2ccc3ncc(C(=O)NCCN4CCOCC4)nc3c2)c1 (as salt: HCl) (hydrate or solvate) [Compound 160] here?
A: 149 °C

Q: Which melting point does the source give for COc1cc(OC)cc(N(CCNC(C)C)c2ccc3ncc(NCC4CCNCC4)nc3c2)c1 (as salt: HCl) (hydrate or solvate) [Compound 161] here?
A: 185 °C

Q: For COc1cc(OC)cc(N(CCNC(C)C)c2ccc3ncc(C(=O)N4CCN(C)CC4)nc3c2)c1 (as salt: HCl) (hydrate or solvate) [Compound 179], which melting point is on record?
A: 250 °C

Q: With COc1cc(OC)cc(N(CCNC(C)C)c2ccc3ncc(C(=O)N4CCCCC4)nc3c2)c1 (as salt: HCl) (hydrate or solvate) [Compound 180] as the compound, how does the melting point read?
A: 236 °C

Q: With COc1cc(OC)cc(N(CCNC(C)C)c2ccc3ncc(C(=O)N4CCOCC4)nc3c2)c1 (as salt: HCl) (hydrate or solvate) [Compound 181] as the compound, how does the melting point read?
A: 255 °C

Q: For COc1cc(OC)cc(N(CCCNCC(F)(F)F)c2ccc3ncc(-c4ccn(C)c4)nc3c2)c1 (as salt: HCl) [Compound 5], which melting point is on record?
A: 186 °C

Q: For COc1cc(OC)cc(N(CCNC(C)C)c2ccc3ncc(-c4ccn(C)c4)nc3c2)c1 (as salt: HCl) [Compound 8], which melting point is on record?
A: 200 °C

Q: With COc1cc(OC)cc(N(CC2CC2)c2ccc3ncc(-n4ccnc4C)nc3c2)c1 (as salt: HCl) [Compound 32] as the compound, how does the melting point read?
A: 223 °C

Q: For COc1cc(OC)cc(N(Cc2cccc(CN)n2)c2ccc3ncc(-c4ccc(N)nc4)nc3c2)c1 (as salt: HCl) [Compound 51], which melting point is on record?
A: 170 °C

Q: Which melting point does the source give for COc1cc(OC)cc(N(CC2CC2)c2ccc3ncc(-c4ccn[nH]4)nc3c2)c1 (as salt: HCl) [Compound 58] here?
A: 134 °C

Q: Which melting point does the source give for COc1cc(OC)cc(N(CCNC(C)C)c2ccc3ncc(-c4ccn[nH]4)nc3c2)c1 (as salt: HCl) [Compound 189] here?
A: 145 °C

Q: For COCC(CN(c1cc(OC)cc(OC)c1)c1ccc2ncc(-c3cccnc3)nc2c1)OC(C)=O (single isomer, unassigned) (as salt: HCl) (hydrate or solvate) [Compound 76], which melting point is on record?
A: 80 °C

Q: With COc1cc(OC)cc(N(CCN2C(=O)c3ccccc3C2=O)c2ccc3ncc(-c4ccc(N)nc4)nc3c2)c1 [Compound 57] as the compound, how does the melting point read?
A: 222 °C
